In brackets after ≈: the same amount, converted by molar mass. Several values for one entry are separate records, joined by “and”; a condition that tells them apart may be missing. Equal values may be shown once. Read-outs that look alike come from different tables or passages of the source.

What all share (type): cell-based
For experiment [1], the system named is Moderately vancomycin-resistant Enterococci faecium with the VanA gene (WHO-3). The experiment is described as follows: MIC by agar dilution, VRE (WHO-3). The following applies: for MIC: WHO-3. From the text: (§1) A panel of multiple resistance Gram-positive and Gram-negative pathogens listed in Tables 1 and 2 was used to evaluate the antimicrobial activity of marinopyrrole derivatives (Chart 1) with vancomycin as a positive control. Except for those marked with WHO, all pathogens were isolated between 2008 and 2010 in hospitals located in Beijing; Guangzhou; Sichuan, Shandong and Jiangsu Province. Determination of the minimum inhibitory concentration (MIC) was done by the guidelines of the Clinical and Laboratory Standards Institute (Clinical and Laboratory Standards Institute, Performance standards for antimicrobial susceptibility testing, seventeenth informational supplement. 2007, 27, M100-S17). The susceptibility tests of a bacterial strain to a marinopyrrole derivative were performed by an agar dilution method. Briefly, each sterile petri dish contained a final volume of 15 mL comprising 1 mL of a marinopyrrole derivative and 14 mL of Mueller-Hinton broth. The concentrations of a marinopyrrole derivative are 128, 64, 32, 16, 8, 4, 2, 1, 0.5, 0.25, 0.125, 0.06, 0.03, 0.015 and 0.008 μg/mL. The petri dish containing the broth with different concentration of antibiotics was first inoculated with 10^5 CFU/mL (Denley A400, United Kingdom) and the culture was then incubated with shaking at 35-37° C. for 18-20 h. The potency of the compound was determined and expressed as minimum inhibitory concentration (MIC) in μg/mL. The MIC was determined as the lowest concentration of antibiotic that inhibited visible bacterial growth.

Experiment [2] relates to Methicillin-susceptible Staphylococcus aureus (MSSA). As to the kind of experiment: MIC by agar dilution, MSSA clinical isolates. The following applies: for MIC: MSSA, data from 8 isolates.
Excerpt: as §1

For experiment [3], the system named is Methicillin-resistant Staphylococcus aureus (MRSA). The experiment is described as follows: MIC by agar dilution, MRSA clinical isolates. The following applies: for MIC: MRSA, data from 8 isolates.
Excerpt: as §1
Background: In agar dilution, organisms are placed on agar that contains the substance at set levels.

Experiment [4] concerns Methicillin-resistant Staphylococcus epidermidis (MRSE). As to the kind of experiment: MIC by agar dilution, MRSE clinical isolates. The following applies: for MIC: MRSE.
Excerpt: as §1

Experiment [5] deals with Oxacillin-resistant Staphylococcus aureus (WHO-25). The experiment is described as follows: MIC by agar dilution, ORSA (WHO-25). To be noted: WHO-25.
Excerpt: as §1

The test system of experiment [6] is Methicillin-resistant Staphylococcus aureus with the mec A gene and PBP2a (WHO-31). The experiment is described as follows: MIC by agar dilution, MRSA (WHO-31). To be noted: WHO-31.
Excerpt: as §1

Setting [7] is: Staphylococcus aureus, Table 3, read-out: MIC.
Setting [8] is: Staphylococcus epidermidis, Table 3, data from 4 isolates, read-out: MIC.
Where [9] appears, read: Staphylococcus aureus, Table 2, read-out: MIC.
The mark [10] stands for this setting: Staphylococcus epidermidis, Table 2, data from 4 isolates, read-out: MIC.
The mark [11] stands for this setting: Enterococcus, Table 2, read-out: MIC.

As to `O=C(c1ccccc1O)c1[nH]c(Cl)c(Cl)c1-n1c(C(=O)c2ccccc2O)cc(Cl)c1Cl` (racemic) [Compound 1, marinopyrrole A, reference compound], in experiment [1] (against moderately resistant VRE (Table 1)), the “higher potency than vancomycin (fold)” value is recorded as 128-256 fold.

As for `Cc1cc(O)c(C(=O)c2[nH]c(Cl)c(Cl)c2-n2c(C(=O)c3cc(Cl)c(C)cc3O)cc(Cl)c2Cl)cc1Cl` [CCW14], the minimum inhibitory concentration (MIC) in experiment [2] (setting [7]) amounted to 1 µg/mL (≈ 1.65 µM); in experiment [3] (setting [7]), 1 µg/mL (≈ 1.65 µM); in experiment [4] (setting [8]) it was 1 µg/mL (≈ 1.65 µM); in experiment [1] (Enterococcus, Table 3, read-out: MIC) it was 4 µg/mL (≈ 6.59 µM); in experiment [5] (setting [7]), 4 µg/mL (≈ 6.59 µM); in experiment [6] (setting [7]), 1 µg/mL (≈ 1.65 µM).

In the case of `O=C(c1cc(Cl)c(O)cc1O)c1[nH]c(Cl)c(Cl)c1-n1c(C(=O)c2cc(Cl)c(O)cc2O)cc(Cl)c1Cl` [Compound 19, (4,4′,5,5′-Tetrachloro-1′H-1,3′-bipyrrole-2,2′-diyl)bis((5-chloro-2,4-dihydroxyphenyl)methanone)], the MIC is 32 µg/mL (≈ 52.4 µM) in experiment [2] (setting [9]); 32 µg/mL (≈ 52.4 µM) in experiment [3] (setting [9]); 4 to 8 µg/mL (≈ 6.55 to 13.1 µM) in experiment [4] (setting [10]); 4 µg/mL (≈ 6.55 µM) in experiment [1] (setting [11]); 8 µg/mL (≈ 13.1 µM) in experiment [5] (setting [9]); 8 µg/mL (≈ 13.1 µM) in experiment [6] (setting [9]). Further, the “fold decreased potency compared with compound 1m” value in experiment [3] (against MRSA) is on record as 4-16 fold; in experiment [4] (against MRSE), 2-16 fold.

In the case of `O=C(c1ccc(O)cc1O)c1[nH]c(Cl)c(Cl)c1-n1c(C(=O)c2ccc(O)cc2O)cc(Cl)c1Cl` [Compound 24, (4,4′,5,5′-Tetrachloro-1′H-1,3′-bipyrrole-2,2′-diyl)bis((2,4-dihydroxyphenyl)methanone)], the minimum inhibitory concentration (MIC) was 2 µg/mL (≈ 3.69 µM) in experiment [2] (setting [9]); 2 µg/mL (≈ 3.69 µM) in experiment [3] (setting [9]); 2 to 8 µg/mL (≈ 3.69 to 14.8 µM) in experiment [4] (setting [10]); 4 µg/mL (≈ 7.38 µM) in experiment [1] (setting [11]); 4 µg/mL (≈ 7.38 µM) in experiment [5] (setting [9]); 2 µg/mL (≈ 3.69 µM) in experiment [6] (setting [9]).

As for `CCOC(=O)CSc1ccc(C(=O)c2[nH]c(Cl)c(Cl)c2-n2c(C(=O)c3ccc(SCC(=O)OCC)cc3O)cc(Cl)c2Cl)c(O)c1` [Compound 25], the MIC was 64 µg/mL (≈ 85.7 µM) in experiment [2] (Table 2); 32 to 64 µg/mL in experiment [3] (Table 2); 8 µg/mL (≈ 10.7 µM) in experiment [4] (Table 2, data from 4 isolates); 2 µg/mL (≈ 2.68 µM) in experiment [1] (Table 2); 64 µg/mL (≈ 85.7 µM) in experiment [5] (Table 2); 16 µg/mL (≈ 21.4 µM) in experiment [6] (Table 2).

As for `O=C(c1ccc(SCc2ccccc2)cc1O)c1[nH]c(Cl)c(Cl)c1-n1c(C(=O)c2ccc(SCc3ccccc3)cc2O)cc(Cl)c1Cl` [Compound 26, (4,4′,5,5′-Tetrachloro-1′H-1,3′-bipyrrole-2,2′-diyl)bis(((2-hydroxy-4-benzylthio)phenyl)methanone)], the MIC is more than 64 µg/mL in experiment [2] (Table 2); more than 64 µg/mL in experiment [3] (Table 2); 8 to 32 µg/mL in experiment [4] (Table 2, data from 4 isolates); 16 µg/mL (≈ 21.2 µM) in experiment [1] (Table 2); more than 64 µg/mL in experiment [5] (Table 2); more than 64 µg/mL in experiment [6] (Table 2).

As to `COc1ccc(CSc2ccc(C(=O)c3[nH]c(Cl)c(Cl)c3-n3c(C(=O)c4ccc(SCc5ccc(OC)cc5)cc4O)cc(Cl)c3Cl)c(O)c2)cc1` [Compound 27], the MIC in experiment [2] (Table 2) is more than 64 µg/mL; in experiment [3] (Table 2), more than 64 µg/mL; in experiment [4] (Table 2, data from 4 isolates), 8 to 64 µg/mL; in experiment [1] (Table 2) it was 16 µg/mL (≈ 19.6 µM); in experiment [5] (Table 2), more than 64 µg/mL; in experiment [6] (Table 2), more than 64 µg/mL.

Turning to `CCOC(=O)CS(=O)(=O)c1ccc(C(=O)c2[nH]c(Cl)c(Cl)c2-n2c(C(=O)c3ccc(S(=O)(=O)CC(=O)OCC)cc3O)cc(Cl)c2Cl)c(O)c1` [Compound 28], the MIC in experiment [2] (Table 2) is more than 64 µg/mL; in experiment [3] (Table 2), more than 64 µg/mL; in experiment [4] (Table 2, data from 4 isolates), 8 µg/mL (≈ 9.87 µM); in experiment [1] (Table 2), 4 µg/mL (≈ 4.94 µM); in experiment [5] (Table 2) it was 32 µg/mL (≈ 39.5 µM); in experiment [6] (Table 2), more than 64 µg/mL.

Regarding `O=C(c1ccc(S(=O)(=O)Cc2ccccc2)cc1O)c1[nH]c(Cl)c(Cl)c1-n1c(C(=O)c2ccc(S(=O)(=O)Cc3ccccc3)cc2O)cc(Cl)c1Cl` [Compound 29, (4,4′,5,5′-Tetrachloro-1′H-1,3′-bipyrrole-2,2′-diyl)bis(((2-hydroxy-4-benzylsulfonyl)phenyl)methanone)], the MIC was more than 64 µg/mL in experiment [2] (Table 2); more than 64 µg/mL in experiment [3] (Table 2); 32 µg/mL (≈ 39.1 µM) in experiment [4] (Table 2, data from 4 isolates); 8 µg/mL (≈ 9.77 µM) in experiment [1] (Table 2); 32 µg/mL (≈ 39.1 µM) in experiment [5] (Table 2); 64 µg/mL (≈ 78.2 µM) in experiment [6] (Table 2).

As for `COc1ccc(CS(=O)(=O)c2ccc(C(=O)c3[nH]c(Cl)c(Cl)c3-n3c(C(=O)c4ccc(S(=O)(=O)Cc5ccc(OC)cc5)cc4O)cc(Cl)c3Cl)c(O)c2)cc1` [Compound 30], the MIC in experiment [2] (Table 2) is more than 64 µg/mL; in experiment [3] (Table 2), more than 64 µg/mL; in experiment [4] (Table 2, data from 4 isolates), 2 to 16 µg/mL; in experiment [1] (Table 2), more than 64 µg/mL; in experiment [5] (Table 2), more than 64 µg/mL; in experiment [6] (Table 2), more than 64 µg/mL.

For the compound `O=C(O)CSc1ccc(C(=O)c2[nH]c(Cl)c(Cl)c2-n2c(C(=O)c3ccc(SCC(=O)O)cc3O)cc(Cl)c2Cl)c(O)c1` [Compound 31], the MIC in experiment [2] (setting [9]) is more than 64 µg/mL; in experiment [3] (setting [9]), more than 64 µg/mL; in experiment [4] (setting [10]), 32 to 64 µg/mL (≈ 46.4 to 92.7 µM); in experiment [1] (setting [11]), 32 µg/mL (≈ 46.4 µM); in experiment [5] (setting [9]), more than 64 µg/mL; in experiment [6] (setting [9]), more than 64 µg/mL.

Consider `O=C(O)CS(=O)(=O)c1ccc(C(=O)c2[nH]c(Cl)c(Cl)c2-n2c(C(=O)c3ccc(S(=O)(=O)CC(=O)O)cc3O)cc(Cl)c2Cl)c(O)c1` [Compound 32], for which the MIC is more than 64 µg/mL in experiment [2] (setting [9]); more than 64 µg/mL in experiment [3] (setting [9]); 8 to 64 µg/mL (≈ 10.6 to 84.8 µM) in experiment [4] (setting [10]); 64 µg/mL (≈ 84.8 µM) in experiment [1] (setting [11]); more than 64 µg/mL in experiment [5] (setting [9]); more than 64 µg/mL in experiment [6] (setting [9]).

`O=C(c1ccc(C(F)(F)F)cc1O)c1[nH]c(Cl)c(Cl)c1-n1c(C(=O)c2ccc(C(F)(F)F)cc2O)cc(Cl)c1Cl` [Compound 41, (4,4′,5,5′-tetrachloro-1′H-1,3′-bipyrrole-2,2′-diyl)bis((2-hydroxy-4-(trifluoromethyl)phenyl)methanone)]: the MIC in experiment [2] (setting [9]) is 0.125 µg/mL (≈ 0.193 µM); in experiment [2] (Table 3), 0.125 µg/mL (≈ 0.193 µM); in experiment [3] (setting [9]) it was 0.125 to 0.25 µg/mL (≈ 0.193 to 0.387 µM); in experiment [3] (Table 3), 0.125 to 0.25 µg/mL; in experiment [4] (setting [10]), less than 0.008 µg/mL; in experiment [4] (setting [8]), less than 0.008 µg/mL. Further, the MIC in experiment [4] (Staphylococcus epidermidis, against MRSE, read-out: MIC) was 0.008 µg/mL (≈ 0.0124 µM); in experiment [1] (setting [11]) it was 0.5 µg/mL (≈ 0.774 µM); in experiment [1] (Table 3), 0.5 µg/mL (≈ 0.774 µM); in experiment [5] (setting [9]) it was 1 µg/mL (≈ 1.55 µM); in experiment [5] (Table 3), 1 µg/mL (≈ 1.55 µM); in experiment [6] (setting [9]), 1 µg/mL (≈ 1.55 µM). The compound also came in with an MIC in experiment [6] (Table 3) of 1 µg/mL (≈ 1.55 µM). In addition, the “fold more potent than marinopyrrole A” value in experiment [2] (against MSSA) was 4 fold; in experiment [3] (against MRSA), 2-4 fold and 4 fold; in experiment [4] (against MRSE) it was > 31 fold and 31 fold. Besides, the “fold more potent than vancomycin” value in experiment [2] (against MSSA) is 8 fold; in experiment [3] (against MRSA), 2-4 fold and 4-8 fold; in experiment [4] (against MRSE) it was > 62 fold and 63-125 fold.

In general, MIC refers to the lowest concentration found to suppress growth.

Values taken from US9700044B2, “Symmetrical marinopyrrole derivatives as potential antibiotic agents” (priority 2013, dated 2017).
